Laboratory results from patent US20260250318A1, “COMPOSITIONS AND METHODS FOR CROSSING THE BLOOD BRAIN BARRIER” (VOYAGER THERAPEUTICS, INC., priority 2022, published 2026).

Experiments:
Settings in all cases: synthetic library passage 3, intravenous, relative to wild-type AAV9
brain [1] = experiment: NGS fold enrichment of synthetic library (passage 3) in C57Bl/6 mice, first cross-species screen; type: in vivo
Summary of the method: (§1)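 Synthetic capsid library (passage 3) was given intravenously […] to NHPs aged 2-4 years and to BALB/c and C57Bl/6 mice (n=3 each, 6-8 weeks). After about 28 days in vivo, tissue RNA was RT-PCR amplified and NGS-sequenced; values are fold enrichment per variant relative to wild-type AAV9.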

[2] = test system: brain, spinal cord, and DRG of the NHPs; experiment: NGS fold enrichment of synthetic library (passage 3) in NHPs, first cross-species screen; type: in vivo, cynomolgus macaques (Macaca fascicularis)
Summary of the method: as §1

brain [3] = experiment: NGS fold enrichment of synthetic library (passage 3) in BALB/c mice, first cross-species screen; type: in vivo
Summary of the method: as §1

[4] = RNA from brain of C57Bl/6 mice, NGS
[5] = RNA from spinal cord of NHPs, NGS
[6] = RNA from brain of BALB/c mice, NGS

| Sequence | Fold enrichment over AAV9 in the brain of Mice (C57Bl/6) (brain [1]; RNA NGS, brain of C57Bl/6 mice) [fold] | Fold enrichment over AAV9 in the brain of NHPs ([2]; RNA NGS, brain of NHPs) [fold] | Fold enrichment over AAV9 in the spinal cord of NHPs ([2]; RNA NGS, spinal cord of NHPs) [fold] | Fold enrichment over AAV9 in the brain of Mice (BALB/c) (brain [3]; RNA NGS, brain of BALB/c mice) [fold] | Fold enrichment over AAV9 in the brain of Mice (C57Bl/6) (brain [1]; [4]) [fold] | Fold enrichment over AAV9 in the brain of NHPs ([2]; RNA from brain of NHPs, NGS) [fold] | Fold enrichment over AAV9 in the spinal cord of NHPs [2, 5] [fold] | Fold enrichment over AAV9 in the brain of Mice (BALB/c) (brain [3]; [6]) [fold] |
| --- | --- | --- | --- | --- | --- | --- | --- | --- |
| GSLVSQGAGQNQQT | 1.436 | 2.188 | 4.414 | 1.246 | – | – | – | – |
| GSLVSTQSGQNQQT | – | – | – | – | 1.282 | 1.305 | 1.293 | 0.650 |
| GSLVSVQTGQNQQT | 0.903 | 3.534 | 6.043 | 0.469 | – | – | – | – |
| GSLYGQSLGQNQQT | – | – | – | – | 0.894 | 1.348 | 11.248 | 0.843 |
| GSNAQSAHGQNQQT | – | – | – | – | 0.976 | 1.371 | 0.888 | 0.245 |
| GSNGFTALGQNQQT | 0.830 | 3.361 | 2.663 | 0.332 | – | – | – | – |
| GSNGGVGTGQNQQT | 1.191 | 2.130 | 0.788 | 1.087 | – | – | – | – |
| GSNLSFQSGQNQQT | 1.087 | 2.122 | 5.853 | 0.719 | – | – | – | – |
| GSNMGVPLGQNQQT | 0.334 | 2.049 | 2.448 | 0.420 | – | – | – | – |
| GSPGVSPSGQNQQT | – | – | – | – | 0.853 | 1.178 | 3.006 | 1.160 |
| GSPLQDRVGQNQQT | 0.469 | 1.548 | 0.753 | 0.391 | – | – | – | – |
| GSPYMGATGQNQQT | 0.918 | 1.083 | 5.364 | 0.254 | – | – | – | – |
| GSQSTLGLGQNQQT | – | – | – | – | 0.594 | 1.204 | 3.246 | 0.400 |
| GSRDGHTVGQNQQT | 0.495 | 1.928 | 7.089 | 0.661 | – | – | – | – |
| GSRETSLSGQNQQT | – | – | – | – | 1.364 | 1.373 | 5.193 | 0.203 |
